This is an account of results in publication doi:10.1101/2022.12.16.520736v1 (biorxiv, 2022).

The assay relates to CK2 activity in cell extracts. The following applies: then lysed.

Where two headings read alike, the source gives them in different places.

As usually defined, the IC50 is the point on the concentration scale where inhibition reaches its midpoint. Low readings indicate inhibition by little substance, high ones a need for much substance. Turning to `CC(C)COC(=O)c1[nH]c2ccc(F)cc2c1-c1cn(CC2CCN(CCNS(=O)(=O)c3ccc(CC(C)C)cc3)CC2)nn1` [AB668], the IC50 came out at 340 ± 70 nM (786-O cells treated with the inhibitor) and 600 ± 110 nM (HEK293 cells treated with the inhibitor).
